These results are taken from article PMC8549260, “Crude extract and isolated bioactive compounds from Notholirion thomsonianum (Royale) Stapf as multitargets antidiabetic agents: in-vitro and molecular docking approaches” (BMC Complementary Medicine and Therapies, 2021).

Read-outs that look alike come from different tables or passages of the source.

Broadly, the inhibition is the drop in the measured response relative to a control, in per cent. One may read the IC50 as the concentration at which inhibition is half-maximal.

The nature of assay [1]: DPPH free radicals scavenging assay. The following applies: for DPPH Assay % Scavenging (mean ± SEM) / DPPH Percent Inhibition (mean ± SEM): n = 3. The method, then:
Plant samples solutions were prepared ranging from 125 to 1000 μg/ mL and were added to 0.004% methanolic solution of DPPH. Subsequent to 30 min incubation, absorbances were measured at 517 nm.
In free radicals’ assays including DPPH, ABTS and H2O2, the IC50s were calculated using same method.
For orientation: DPPH is a stable violet radical that fades when it is reduced.

The nature of assay [2]: ABTS free radicals scavenging assay. The following applies: for ABTS Assay % Scavenging (mean ± SEM): n = 3. How it is done: Plant crude samples were also evaluated against ABTS free radicals using standard protocol. In this protocols, 7 mM solution of ABTS and 2.45 mM of potassium per sulfate were mixed and kept in dark at laboratory temperature for around 16 h till the color become dark. Solution of 0.01 M of phosphate buffer having pH 7.40 was mixed with it and absorbance was adjusted at 0.70 at 734 nm. Afterwards, solution of the plant extracts (300 μl) was added to ABTS solution (3 mL) and absorbance was recorded at 734 nm. Mixed the solution for 1 min and reduction in absorbance was recorded. The mixing and reduction were repeated for 6 min. The experiments were performed three times. The percent inhibitions and subsequent IC50 values of samples and standard ascorbic acid were calculated as per the standard procedure.

Assay [3] in a line: H2O2 free radicals scavenging assay. The following applies: n = 3. The method, then: This method was used to determine the antioxidant potentials of crude extracts from N. thomsonianum. A solution of H2O2 (2 mM) was prepared in buffer solution of phosphate (50 mM, pH 7.40). In a test tube, 0.10 mL of crude extract was measured, and the volume was diluted to 0.40 mL by adding the phosphate buffer. Then 0.60 mL solution of H2O2 was added to it and was mixed properly. The absorbance of the crude sample and standard were recorded on 230 nm. The same procedure was repeated for all the crude samples.

In assay [4] the target is Yeast α-Glucosidase (Saccharomyces cerevisiae, UniProt P53341). The assay is described as follows: biochemical. The settings on record: for IC50: α-Glucosidase IC50, Table 3, isolated compounds series. How it is done:
In 0.10 M of phosphate buffer having pH of 6.90, the α-glucosidase enzyme solution was prepared (0.50 U/ mL). […] The same solution without the enzyme was used as a blank. The absorbances were recorded at 405 nm. All the experiments were repeated in triplicate. The percent inhibitions and subsequent IC50 (in μg/mL and also in μM) were calculated accordingly. […]

The target of assay [5] is T1, α-amylase (Homo sapiens, UniProt P04746).
T1 sequence (P04746 16-511): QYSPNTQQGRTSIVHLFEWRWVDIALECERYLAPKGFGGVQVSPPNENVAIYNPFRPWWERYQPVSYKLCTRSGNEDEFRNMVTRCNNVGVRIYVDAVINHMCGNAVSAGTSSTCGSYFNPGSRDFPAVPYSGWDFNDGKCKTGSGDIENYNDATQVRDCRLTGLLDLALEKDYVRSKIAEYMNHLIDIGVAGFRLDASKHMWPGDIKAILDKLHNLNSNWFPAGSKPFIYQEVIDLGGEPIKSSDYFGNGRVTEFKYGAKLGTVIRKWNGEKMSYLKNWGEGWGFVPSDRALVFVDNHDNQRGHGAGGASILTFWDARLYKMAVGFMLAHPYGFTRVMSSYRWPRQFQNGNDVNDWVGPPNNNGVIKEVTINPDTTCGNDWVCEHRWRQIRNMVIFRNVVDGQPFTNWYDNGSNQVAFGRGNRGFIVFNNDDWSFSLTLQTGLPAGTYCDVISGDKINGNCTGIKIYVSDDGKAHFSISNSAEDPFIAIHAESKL
The assay is described as follows: In-vitro α-amylase inhibition. The class given is biochemical. The following applies: for IC50: Table 3, isolated compounds series. The method, then:
The amylase solution was prepared in phosphate buffer followed by addition of different concentrations of plant extracts and isolated compounds. The solutions of test samples in enzyme solution were allowed to react. The solutions were incubated for a specific temperature and were added starch solution. Afterwards, a solution of dinitrosalicylic acid was added to both of the groups, i.e. sample and control solution groups. The solutions were then allowed to heat up in boiling water for a few min. […] The experiments were performed in triplicates and percent inhibitions were calculated as per the reported formula. […]

Assay [6] has as its target T2, PTP1B (Homo sapiens, UniProt P18031).
T2 sequence (P18031 1-435): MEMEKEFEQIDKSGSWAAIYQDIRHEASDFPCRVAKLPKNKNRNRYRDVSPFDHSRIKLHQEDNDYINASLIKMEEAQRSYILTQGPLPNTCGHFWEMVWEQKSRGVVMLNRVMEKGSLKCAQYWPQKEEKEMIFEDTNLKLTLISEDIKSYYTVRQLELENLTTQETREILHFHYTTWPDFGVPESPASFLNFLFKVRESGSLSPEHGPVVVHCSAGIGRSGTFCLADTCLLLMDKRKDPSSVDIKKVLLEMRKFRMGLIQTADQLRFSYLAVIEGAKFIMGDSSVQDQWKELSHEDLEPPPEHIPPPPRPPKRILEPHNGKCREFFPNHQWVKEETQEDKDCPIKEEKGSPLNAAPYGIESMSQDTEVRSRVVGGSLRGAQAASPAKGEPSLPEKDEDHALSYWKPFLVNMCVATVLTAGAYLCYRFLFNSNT
The assay is described as follows: Protein tyrosine phosphatase 1B inhibition. The class given is biochemical. How it is done: The solutions were then incubated for 40 min at 27 °C and absorbances were recorded at 405 nm using microplate reader. The experiments were repeated three times and percent inhibitions followed by IC50 values were recorded accordingly.

The mark [7] stands for this setting: read-out: α-Glucosidase Percent Inhibition (mean ± SEM).
Where [8] appears, read: Table 3, 125 μg/mL, n = 3, read-out: α-Amylase Percent Inhibition (mean ± SEM) (converted).
[9] abbreviates: Table 3, 250 μg/mL, n = 3, read-out: α-Amylase Percent Inhibition (mean ± SEM) (converted).
Setting [10] is: Table 3, 500 μg/mL, n = 3, read-out: α-Amylase Percent Inhibition (mean ± SEM).
The mark [11] stands for this setting: 125 μg/mL, n = 3, read-out: PTP1B Percent Inhibition (mean ± SEM) (converted).
The mark [12] stands for this setting: 250 μg/mL, n = 3, read-out: PTP1B Percent Inhibition (mean ± SEM) (converted).
[13] abbreviates: 500 μg/mL, n = 3, read-out: PTP1B Percent Inhibition (mean ± SEM).
Where [14] appears, read: read-out: Alpha glucosidase Percent Inhibition (mean ± SEM).
[15] abbreviates: read-out: Alpha amylase Percent Inhibition (mean ± SEM).
Where [16] appears, read: read-out: α-Amylase Percent Inhibition (mean ± SEM).
Where [17] appears, read: read-out: PTP1B Percent Inhibition (mean ± SEM).

Yeast α-Glucosidase, sequence (P53341 whole entry): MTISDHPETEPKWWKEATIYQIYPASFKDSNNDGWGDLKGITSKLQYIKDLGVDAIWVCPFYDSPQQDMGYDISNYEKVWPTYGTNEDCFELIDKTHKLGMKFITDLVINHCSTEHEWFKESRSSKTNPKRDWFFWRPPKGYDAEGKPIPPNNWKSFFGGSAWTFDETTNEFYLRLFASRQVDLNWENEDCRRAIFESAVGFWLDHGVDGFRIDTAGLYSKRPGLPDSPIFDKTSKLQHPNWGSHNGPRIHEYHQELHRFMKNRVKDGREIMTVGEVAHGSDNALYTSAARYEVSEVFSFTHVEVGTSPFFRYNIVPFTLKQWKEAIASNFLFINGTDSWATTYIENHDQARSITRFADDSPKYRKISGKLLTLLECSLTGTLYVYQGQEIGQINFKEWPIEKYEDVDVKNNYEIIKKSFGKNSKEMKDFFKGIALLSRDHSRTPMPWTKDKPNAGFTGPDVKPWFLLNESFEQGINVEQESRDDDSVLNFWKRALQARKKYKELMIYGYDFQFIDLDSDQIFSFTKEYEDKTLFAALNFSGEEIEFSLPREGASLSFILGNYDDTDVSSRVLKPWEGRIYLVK

With `O=C1O[C@H]([C@@H](O)CO)C(O)=C1O` [AA, Ascorbic acid], the “DPPH Assay % Scavenging (mean ± SEM)” value in assay [1] (Table 2, 125 μg/mL) was found to be 76.54 ± 0.54%; in assay [1] (Table 2, 250 μg/mL), 81.33 ± 0.88%; in assay [1] (Table 2, 500 μg/mL), 87.84 ± 0.26%; in assay [1] (Table 2, 1000 μg/mL), 92.55 ± 0.35%. Also, the “DPPH Assay IC50” value in assay [1] (Table 2, crude extracts series) is < 0.1 µg/mL. Moreover, the “DPPH Percent Inhibition (mean ± SEM)” value in assay [1] (Table 4, 125 μg/mL) was found to be 85.20 ± 0.49%; in assay [1] (Table 4, 250 μg/mL), 88.47 ± 0.71%; in assay [1] (Table 4, 500 μg/mL) it was 91.75 ± 0.42%. The “ABTS Assay IC50” value in assay [2] is < 0.1 µg/mL. Besides, the “ABTS Assay % Scavenging (mean ± SEM)” value was determined as 78.46 ± 0.58% in assay [2] (125 μg/mL), 80.43 ± 0.55% in assay [2] (250 μg/mL), 86.53 ± 0.60% in assay [2] (500 μg/mL) and 87.60 ± 0.40% in assay [2] (1000 μg/mL). Besides, the “H2O2 Assay % Scavenging (mean ± SEM)” value worked out at 68.00 ± 0.57% in assay [3] (125 μg/mL), 71.50 ± 0.60% in assay [3] (250 μg/mL), 74.66 ± 0.49% in assay [3] (500 μg/mL) and 83.33 ± 0.88% in assay [3] (1000 μg/mL).
In the case of `CC(C)=CC(=O)CC(C)c1ccc(C)cc1` (centres unmarked) [Nt01], the inhibition at 125 µg/mL in assay [4] (setting [7]) was 44.4%; in assay [5] (setting [8]), 67.9%; in assay [6] (setting [11]) it was 83.4%. The inhibition at 250 µg/mL in assay [4] (setting [7]) is 51.9%; in assay [5] (setting [9]) it was 72.1%; in assay [6] (setting [12]), 88.7%. The inhibition at 500 µg/mL in assay [4] (setting [7]) was found to be 55.6 ± 1.06%; in assay [5] (setting [10]), 77.8 ± 2.24%; in assay [6] (setting [13]), 90.09 ± 0.32%. Moreover, the IC50 in assay [5] is < 144 µM; in assay [5] (based on molecular weight), < 145 µM; in assay [6], < 144 µM; in assay [6] (based on molecular weight), < 145 µM. Further, the “DPPH Percent Inhibition (mean ± SEM)” value in assay [1] (Table 4, 125 μg/mL) is given as 79.62 ± 0.03%; in assay [1] (Table 4, 250 μg/mL), 84.36 ± 1.15%; in assay [1] (Table 4, 500 μg/mL) it was 88.35 ± 0.89%.
As to `C[C@H]1O[C@H](O[C@H]2[C@H](O)[C@@H](O)[C@@H](O[C@H]3[C@H](O)[C@@H](O)C(O)O[C@@H]3CO)O[C@@H]2CO)[C@H](O)[C@@H](O)[C@@H]1N[C@H]1C=C(CO)[C@@H](O)[C@H](O)[C@H]1O` (some centres unmarked) [Acarbose, reference compound], in assay [4] (setting [14]), the inhibition at 125 µg/mL is 61.5%, the inhibition at 250 µg/mL was 67.5%, the inhibition at 500 µg/mL is 73.9% and the inhibition at 1000 µg/mL was 76.87 ± 0.06%. Moreover, in assay [4] (setting [7]), the inhibition at 125 µg/mL was 77.6%, the inhibition at 250 µg/mL was 82.4% and the inhibition at 500 µg/mL was 87.08 ± 0.47%. Also, in assay [5] (setting [15]), the inhibition at 125 µg/mL is 64.5%, the inhibition at 250 µg/mL is 69%, the inhibition at 500 µg/mL was 71.7% and the inhibition at 1000 µg/mL stood at 78.63 ± 0.54%. Also, in assay [5] (setting [16]), the inhibition at 125 µg/mL was 83.9%, the inhibition at 250 µg/mL is 89.5% and the inhibition at 500 µg/mL came to 95.23 ± 0.22%.
`CCCC/C=C/C=O` [Nt02]: the inhibition at 125 µg/mL in assay [4] (setting [7]) is 66.9%; in assay [5] (setting [16]), 78.4%; in assay [6] (setting [17]), 85.8%. Moreover, the inhibition at 250 µg/mL in assay [4] (setting [7]) was 71.1%; in assay [5] (setting [16]), 85.3%; in assay [6] (setting [17]), 90.9%. Also, the values for the inhibition at 500 µg/mL in assay [4] (setting [7]), in assay [5] (setting [16]) and in assay [6] (setting [17]) were 76.8 ± 2.24%, 91.36 ± 0.49% and 93.03 ± 0.48%, respectively. Moreover, the IC50 in assay [4], in assay [4] (based on molecular weight), in assay [5], in assay [5] (based on molecular weight), in assay [6] and in assay [6] (based on molecular weight) was < 279 µM each time. Further, the “DPPH Percent Inhibition (mean ± SEM)” value in assay [1] (Table 4, 125 μg/mL) was found to be 74.78 ± 0.44%; in assay [1] (Table 4, 250 μg/mL) it was 79.32 ± 0.40%; in assay [1] (Table 4, 500 μg/mL) it was 86.60 ± 0.00%.
For the compound `C[C@H]1[C@H](C)CC[C@]2(C(=O)O)CC[C@]3(C)C(=CC[C@@H]4[C@@]5(C)CC[C@H](O)C(C)(C)[C@@H]5CC[C@]43C)[C@H]12` [Ursolic acid, reference compound], the inhibition at 125 µg/mL in assay [6] (setting [11]) is 91.5%. Moreover, the inhibition at 250 µg/mL in assay [6] (setting [12]) is 93.6%. Besides, the inhibition at 500 µg/mL in assay [6] (setting [13]) amounted to 98.7 ± 1.32%.
Consider `Cc1c(C)c2c(c(C)c1O)CCC(C)(CCCC(C)CCCC(C)CCCC(C)C)O2` (centres unmarked) [Nt03], for which the inhibition at 125 µg/mL in assay [4] (setting [7]) is 70.6%; in assay [5] (setting [8]), 80.6%; in assay [6] (setting [11]) it was 82.3%. For the same compound, the values for the inhibition at 250 µg/mL in assay [4] (setting [7]), in assay [5] (setting [9]) and in assay [6] (setting [12]) were 73.4%, 86.5% and 87.2%, respectively. The inhibition at 500 µg/mL in assay [4] (setting [7]) came to 78.35 ± 0.23%; in assay [5] (setting [10]), 93.1 ± 1.04%; in assay [6] (setting [13]), 90.83 ± 0.47%. For the same compound, the IC50 was < 72.6 µM in assay [4]; < 72.7 µM in assay [4] (based on molecular weight); < 72.6 µM in assay [5]; < 72.7 µM in assay [5] (based on molecular weight); < 72.6 µM in assay [6]; < 72.7 µM in assay [6] (based on molecular weight). For the same compound, the “DPPH Percent Inhibition (mean ± SEM)” value in assay [1] (Table 4, 125 μg/mL) worked out at 84.44 ± 0.15%; in assay [1] (Table 4, 250 μg/mL), 87.14 ± 0.49%; in assay [1] (Table 4, 500 μg/mL), 90.69 ± 0.14%.
